From ChEMBL document CHEMBL5120919, “Micrococcin P2 Targets Clostridioides difficile” (J Nat Prod, 2022)
Values after ≈ are worked out from the molar mass of the structure shown. Active and inactive are the calls of the source. The calls are words filed in the database; no cut-off is given here.

Key:
Clostridioides difficile [1] = assay: Antibacterial activity against Clostridioides difficile RT027 infected in DSS-induced IBD C57BL/6 mouse model assessed as survival rate at 30 mg/kg, po administered once daily for 5 days; assay type: functional; conditions: time 5 day
[2] = Volume of distribution at steady state in Sprague-Dawley rat at 10 mg/kg, po measured up to 8 hrs by LC-MS/MS analysis; assay type: ADME, organism-based; conditions: in vivo, BLD = below limit of detection
Clostridioides difficile [3] = assay: Antibacterial activity against Clostridioides difficile RT012/ST54 clinical isolate expressing A+B+ toxin assessed as inhibition of bacterial growth incubated for 24 hrs by CLSI based agar dilution method; assay type: functional
Clostridioides difficile [4] = assay: Antibacterial activity against Clostridioides difficile RT001/ST3 clinical isolate expressing A+B+ toxin assessed as inhibition of bacterial growth incubated for 24 hrs by CLSI based agar dilution method; assay type: functional
Clostridioides difficile [5] = assay: Antibacterial activity against Clostridioides difficile RT002/ST8 clinical isolate expressing A+B+ toxin assessed as inhibition of bacterial growth incubated for 24 hrs by CLSI based agar dilution method; assay type: functional
[6] = Half life in Sprague-Dawley rat at 2 mg/kg, iv measured up to 8 hrs by LC-MS/MS analysis; assay type: ADME, organism-based; conditions: in vivo
Clostridioides difficile [7] = assay: Antibacterial activity against Clostridioides difficile RT027 assessed as regrowth of bacteria at 0.5 times MIC measured after 6 hrs by CLSI based time kill curve assay; assay type: functional, organism-based
[8] = MRT in Sprague-Dawley rat at 10 mg/kg, po measured up to 8 hrs by LC-MS/MS analysis; assay type: ADME, organism-based; conditions: in vivo, BLD = below limit of detection
Clostridioides difficile [9] = assay: Antibacterial activity against Clostridioides difficile RT078/ST11 clinical isolate expressing A+B+CDT+ toxin assessed as inhibition of bacterial growth incubated for 24 hrs by CLSI based agar dilution method; assay type: functional
Clostridioides difficile [10] = assay: Antibacterial activity against Clostridioides difficile RT293/ST129 clinical isolate expressing A+B+ toxin assessed as inhibition of bacterial growth incubated for 24 hrs by CLSI based agar dilution method; assay type: functional
RAW264.7 [11] = assay: Antiinflammatory activity in mouse RAW264.7 cells assessed as decrease in LPS induced IL6 expression in supernatant at 5 to 40 uM measured after 24 hrs by ELISA; assay type: functional, cell-based; conditions: dose 5-40 µM
[12] = Clearance in Sprague-Dawley rat at 2 mg/kg, iv measured up to 8 hrs by LC-MS/MS analysis; assay type: ADME, organism-based; conditions: in vivo
Clostridioides difficile [13] = assay: Antibacterial activity against Clostridioides difficile RT130/ST5 clinical isolate expressing A+B+CDT+ toxin assessed as inhibition of bacterial growth incubated for 24 hrs by CLSI based agar dilution method; assay type: functional
SH-SY5Y = assay: Cytotoxicity against human SH-SY5Y cells assessed as reduction in cell viability at 40 uM incubated for 48 hrs by CCK-8 assay; assay type: toxicity, cell-based
[14] = MRT in Sprague-Dawley rat at 2 mg/kg, iv measured up to 8 hrs by LC-MS/MS analysis; assay type: ADME, organism-based; conditions: in vivo
[15] = AUClast in Sprague-Dawley rat at 2 mg/kg, iv measured up to 8 hrs by LC-MS/MS analysis; assay type: ADME, organism-based; parameters: time < 8 hrs, dose 2 mg/kg, route iv; conditions: in vivo
Clostridioides difficile [16] = assay: Antibacterial activity against Clostridioides difficile ST221 clinical isolate expressing A+B+CDT+ toxin assessed as inhibition of bacterial growth incubated for 24 hrs by CLSI based agar dilution method; assay type: functional
Clostridioides difficile [17] = assay: Antibacterial activity against Clostridioides difficile RT014/ST14 clinical isolate expressing A+B+ toxin assessed as inhibition of bacterial growth incubated for 24 hrs by CLSI based agar dilution method; assay type: functional
[18] = Clearance in Sprague-Dawley rat at 10 mg/kg, po measured up to 8 hrs by LC-MS/MS analysis; assay type: ADME, organism-based; conditions: in vivo, BLD = below limit of detection
Clostridioides difficile [19] = assay: Antibacterial activity against Clostridioides difficile RT015/ST35 clinical isolate expressing A+B+ toxin assessed as inhibition of bacterial growth incubated for 24 hrs by CLSI based agar dilution method; assay type: functional
[20] = Volume of distribution at steady state in Sprague-Dawley rat at 2 mg/kg, iv measured up to 8 hrs by LC-MS/MS analysis; assay type: ADME, organism-based; conditions: in vivo, read-out: Vdss
HEK-293T = assay: Cytotoxicity against HEK293T cells assessed as reduction in cell viability at 40 uM incubated for 48 hrs by CCK-8 assay; assay type: toxicity, cell-based; conditions: human
RAW264.7 [21] = assay: Antiinflammatory activity in mouse RAW264.7 cells assessed as decrease in LPS induced IL-1beta expression in supernatant at 5 to 40 uM measured after 24 hrs by ELISA; assay type: functional, cell-based; conditions: dose 5-40 µM
Clostridioides difficile [22] = assay: Antibacterial activity against Clostridioides difficile RT017/ST37 clinical isolate expressing A-B+ toxin assessed as inhibition of bacterial growth incubated for 24 hrs by CLSI based agar dilution method; assay type: functional
Clostridioides difficile [23] = assay: Antibacterial activity against Clostridioides difficile RT027/ST1 clinical isolate expressing A+B+CDT+ toxin assessed as inhibition of bacterial growth incubated for 24 hrs by CLSI based agar dilution method; assay type: functional
Clostridioides difficile [24] = assay: Antibacterial activity against Clostridioides difficile RT027 assessed as reduction in bacterial count at 1 to 4 times MIC measured after 24 hrs by CLSI based time kill curve assay; assay type: functional
Clostridioides difficile [25] = assay: Antibacterial activity against Clostridioides difficile RT018/ST17 clinical isolate expressing A+B+ toxin assessed as inhibition of bacterial growth incubated for 24 hrs by CLSI based agar dilution method; assay type: functional
[26] = Half life in Sprague-Dawley rat at 10 mg/kg, po measured up to 8 hrs by LC-MS/MS analysis; assay type: ADME, organism-based; conditions: in vivo, BLD = below limit of detection
Clostridioides difficile [27] = assay: Antibacterial activity against Clostridioides difficile RT027 assessed as reduction in bacterial count at 5 ug/ml measured after 24 hrs by CLSI based time kill curve assay; assay type: functional; conditions: dose 5 µg/ml

SMILES	MIC (Clostridioides difficile [3]) [µg/mL]	MIC (Clostridioides difficile [4]) [µg/mL]	MIC (Clostridioides difficile [5]) [µg/mL]	MIC (Clostridioides difficile [9]) [µg/mL]	MIC (Clostridioides difficile [10]) [µg/mL]	MIC (Clostridioides difficile [13]) [µg/mL]	MIC (Clostridioides difficile [16]) [µg/mL]	MIC (Clostridioides difficile [17]) [µg/mL]	MIC (Clostridioides difficile [19]) [µg/mL]	MIC (Clostridioides difficile [22]) [µg/mL]	MIC (Clostridioides difficile [23]) [µg/mL]	MIC (Clostridioides difficile [25]) [µg/mL]	also measured
C/C=C(\NC(=O)c1csc(-c2csc(-c3ccc4c(n3)-c3csc(n3)[C@H]([C@@H](C)O)NC(=O)c3csc(n3)[C@H](C(C)C)NC(=O)c3csc(n3)/C(=C/C)NC(=O)[C@H]([C@@H](C)O)NC(=O)c3csc-4n3)n2)n1)C(=O)NCC(C)=O	2 (≈ 1.75 µM)	2 (≈ 1.75 µM)	1 (≈ 0.875 µM)	1 (≈ 0.875 µM)	1 (≈ 0.875 µM)	1 (≈ 0.875 µM)	2 (≈ 1.75 µM)	1 (≈ 0.875 µM)	1 (≈ 0.875 µM)	1 (≈ 0.875 µM)	1 (≈ 0.875 µM)	1 (≈ 0.875 µM)	Activity (Clostridioides difficile [1]): 100%; Vdss [2]: Bld; half-life [6]: 48 min; Activity (Clostridioides difficile [7]): Active; MRT [8]: Bld; Activity (RAW264.7 [11]): Active; clearance [12]: 88.9 mL/min/kg; Activity (SH-SY5Y): Non-Toxic; MRT [14]: 24 min; AUC(0-t) at 8 h [15]: 374 ng·h/mL; CL [18]: Bld; Vd [20]: 2.1 L/kg; Activity (HEK-293T): Non-Toxic; Activity (RAW264.7 [21]): Active; Activity (Clostridioides difficile [24]): 2.5 log10CFU; t1/2 [26]: Bld
CN[C@H](CC(C)C)C(=O)N[C@H]1C(=O)N[C@@H](CC(N)=O)C(=O)N[C@H]2C(=O)N[C@H]3C(=O)N[C@H](C(=O)N[C@H](C(=O)O)c4cc(O)cc(O)c4-c4cc3ccc4O)[C@H](O)c3ccc(c(Cl)c3)Oc3cc2cc(c3O[C@@H]2O[C@H](CO)[C@@H](O)[C@H](O)[C@H]2O[C@H]2C[C@](C)(N)[C@H](O)[C@H](C)O2)Oc2ccc(cc2Cl)[C@H]1O [VANCOMYCIN]	1 (≈ 0.69 µM)	1 (≈ 0.69 µM)	1 (≈ 0.69 µM)	1 (≈ 0.69 µM)	1 (≈ 0.69 µM)	0.5 (≈ 0.345 µM)	1 (≈ 0.69 µM)	1 (≈ 0.69 µM)	1 (≈ 0.69 µM)	0.5 (≈ 0.345 µM)	0.5 (≈ 0.345 µM)	0.5 (≈ 0.345 µM)	Activity (Clostridioides difficile [27]): 1.5 log10CFU
